Experimental data: patent US20240132484A1, “BROAD SPECTRUM ANTIVIRAL COMPOUNDS TARGETING THE SKI COMPLEX” (priority 2020, published 2024)

Tested on: Influenza virus
Test: organism not typed
Type: cell-based, influenza A virus
Details: for Avg PFU/ml: average of first and second experiment; for Influenza virus titer, 10 μM / Influenza virus titer, 50 μM: upper part of table (FIG. 5 data); for Influenza virus titer, 10 μM / Influenza virus titer, 50 μM / Flu titer (pfu/ml): plaque assay; for antiviral activity against IAV infection: screening; for 10 μM treatment, Average / 50 μM treatment Average: average of replicates; for Avg: 1-24-20
[1] = 50 μM compound, replicate 1, DMSO (0.5%) control run per batch

Structure (SMILES) | first experiment (10 μM screen) | second experiment (10 μM screen) | Avg PFU/ml (10 μM screen) | Influenza virus titer, 10 μM (10 μM) | first experiment PFU/ml (50 μM screen) | second experiment PFU/ml (50 μM screen) | Avg PFU/ml (50 μM screen) | Influenza virus titer, 50 μM | Flu titer (pfu/ml) (1 μM compound, A549 cells) | Flu titer (pfu/ml) (10 μM compound, A549 cells) | Flu titer (pfu/ml) (50 μM compound, A549 cells) | also measured
COCCCNCc1ccc(OC)cc1OCC(O)CN1CCN(C)CC1 (centres unmarked) [Compound 18-11] | 100000 PFU/ml | 39000 PFU/ml | 69500 PFU/ml | 100000 PFU/virus/ml | 160000 PFU/ml | 31000 PFU/ml | 95500 PFU/ml | 160000 PFU/virus/ml |  |  |  | 
COc1ccc(CNCCCn2ccnc2)c(OCC(O)CN2CCN(C)CC2)c1 (centres unmarked) [Compound 18-15] | 16000 PFU/ml | 8000 PFU/ml | 12000 PFU/ml | 36000 PFU/virus/ml | 70000 PFU/ml | 1000 PFU/ml | 35500 PFU/ml | 30000 PFU/virus/ml |  |  |  | 
COc1ccc(CNCCc2ccccc2F)c(OCC(O)CN2CCN(C)CC2)c1 (centres unmarked) [UMBCADD-0018, 1-[2-({[2-(2-fluorophenyl)ethyl]amino}methyl)-5-methoxyphenoxy]-3-(4-methyl-1-piperazinyl)-2-propanol] |  |  |  |  |  |  |  |  |  |  |  | inhibition of Influenza virus replication (10 μM, A549 cells): over 20 fold; antiviral activity against IAV infection (A549 cells): effective at 50 μM, 10 μM and 1 μM
CN(CC(O)COc1ccccc1CNCCN1CCCC1)C1CCCCC1 (centres unmarked) [Compound 74597070, 1-[cyclohexyl(methyl)amino]-3-[2-({[2-(1-pyrrolidinyl)ethyl]amino}methyl)phenoxy]-2-propanol] |  |  |  |  |  |  |  |  | 70000 pfu/ml | 55000 pfu/ml | 24000 pfu/ml | 
CCN(CC)CCNCc1ccccc1OCC(O)CN1CCSCC1 (centres unmarked) [Compound 86006211, 1-[2-({[2-(diethylamino)ethyl]amino}methyl)phenoxy]-3-(4-thiomorpholinyl)-2-propanol] |  |  |  |  |  |  |  |  | 70000 pfu/ml | 60000 pfu/ml | 12000 pfu/ml | 
CC#CC(=O)NCc1nc(-c2ccccc2NC(=O)CCOc2ccccc2)oc1C [Compound 17295424, N-[(5-methyl-2-{2-[(3-phenoxypropanoyl)amino]phenyl}-1,3-oxazol-4-yl)methyl]-2-butynamide] |  |  |  |  |  |  |  |  | 44000 pfu/ml | 68000 pfu/ml | 64000 pfu/ml | 
CCN1CCN(CC(O)COc2cccc(CN(C)Cc3cc(C)no3)c2)CC1 (centres unmarked) [Compound 77921510, 1-(4-ethyl-1-piperazinyl)-3-[3-({methyl[(3-methyl-5-isoxazolyl)methyl]amino}methyl)phenoxy]-2-propanol] |  |  |  |  |  |  |  |  | 72000 pfu/ml | 90000 pfu/ml | 26000 pfu/ml | 
COc1ccc(CNC2CCCC2)c(OCC(O)CN2CCN(C)CC2)c1 (centres unmarked) [Compound 18-1] | 60000 PFU/ml | 19000 PFU/ml | 39500 PFU/ml | 60000 PFU/virus/ml | 2200 PFU/ml | 1400 PFU/ml | 1800 PFU/ml | 2200 PFU/virus/ml |  |  |  | 
CCc1ccc(OC(C)c2nnc(SCC(=O)Nc3nc(-c4ccccc4)c(C)s3)n2C)cc1 (centres unmarked) [Compound 7493781, 2-({5-[1-(4-ethylphenoxy)ethyl]-4-methyl-4H-1,2,4-triazol-3-yl}thio)-N-(5-methyl-4-phenyl-1,3-thiazol-2-yl)acetamide] |  |  |  |  |  |  |  |  | 75000 pfu/ml | 98000 pfu/ml | 53000 pfu/ml | 
CC1=C(C(=O)OC2CCCCCCC2)C(c2ccc3c(c2)OCO3)NC(=O)N1 (centres unmarked) [UMB115] |  |  |  |  |  |  |  |  |  |  |  | 10 μM treatment, Average: 3500; 10 μM treatment (replicate 2): 5000; 50 μM treatment Average (50 μM compound): 0; 50 μM treatment [1]: 0; 50 μM treatment (50 μM compound, replicate 2): 0
O=C(NC1CCCCCC1)c1cn[nH]c1-c1ccc2c(c1)OCCO2 [UMB98] |  |  |  |  |  |  |  |  |  |  |  | 10 μM treatment, Average: 0; 10 μM treatment (replicate 2): 0; 50 μM treatment Average (50 μM compound): 0; 50 μM treatment [1]: 0; 50 μM treatment (50 μM compound, replicate 2): 0
COc1ccc(CNCCc2ccccc2C)c(OCC(O)CN2CCN(C)CC2)c1 (centres unmarked) [UMB40] |  |  |  |  |  |  |  |  |  |  |  | antiviral activity against IAV infection (A549 cells): showed a degree of antiviral activity
COc1ccc(CNCCc2ccccc2F)c(OCC(O)CN2CCN(C)CC2)c1 (centres unmarked) [Compound 18, 1-[2-({[2-(2-fluorophenyl)ethyl]amino}methyl)-5-methoxyphenoxy]-3-(4-methyl-1-piperazinyl)-2-propanol] | 2000 PFU/ml | 1100 PFU/ml | 1550 PFU/ml |  | 1400 PFU/ml | 300 PFU/ml | 850 PFU/ml |  |  |  |  | Avg (10 μM screen): 1150 PFU/ml; Avg (50 μM screen): 400 PFU/ml
COc1ccc(CNCCCn2cccn2)c(OCC(O)CN2CCN(C)CC2)c1 (centres unmarked) [Compound 18-13] | 40000 PFU/ml | 20000 PFU/ml | 30000 PFU/ml | 40000 PFU/virus/ml | 80000 PFU/ml | 110000 PFU/ml | 95000 PFU/ml | 80000 PFU/virus/ml |  |  |  | 
COc1ccc(CNCC(F)(F)F)c(OCC(O)CN2CCN(C)CC2)c1 (centres unmarked) [Compound 18-12] | 30000 PFU/ml | 28000 PFU/ml | 29000 PFU/ml | 30000 PFU/virus/ml | 90000 PFU/ml | 26000 PFU/ml | 58000 PFU/ml | 90000 PFU/virus/ml |  |  |  | 
COc1ccccc1Cn1cc(C(=O)NCCC2=CCCCC2)c(=O)c(C(=O)N(CCO)C(C)C)c1 [Compound 55345532, N′-[2-(1-cyclohexen-1-yl)ethyl]-N-(2-hydroxyethyl)-N-isopropyl-1-(2-methoxybenzyl)-4-oxo-1,4-dihydro-3,5-pyridinedicarboxamide] |  |  |  |  |  |  |  |  | 55000 pfu/ml | 70000 pfu/ml | 34000 pfu/ml | 
COc1ccc(CNCCCSC)c(OCC(O)CN2CCN(C)CC2)c1 (centres unmarked) [Compound 18-16] | 210000 PFU/ml | 18000 PFU/ml | 114000 PFU/ml | 21000 PFU/virus/ml | 30000 PFU/ml | 2300 PFU/ml | 16150 PFU/ml | 90000 PFU/virus/ml |  |  |  | 
COc1ccc(CNCCc2ccccc2F)c(OCC(O)CN2CCN(C)CC2)c1 (centres unmarked) [Compound 18-lead, 1-[2-({[2-(2-fluorophenyl)ethyl]amino}methyl)-5-methoxyphenoxy]-3-(4-methyl-1-piperazinyl)-2-propanol] |  |  |  | 2000 PFU/virus/ml |  |  |  | 1400 PFU/virus/ml |  |  |  | 
OC(COc1ccccc1CNCc1cn2c(n1)SCC2)CN1CCSCC1 (centres unmarked) [Compound 32841411, 1-(2-{[(2,3-dihydroimidazo[2,1-b][1,3]thiazol-6-ylmethyl)amino]methyl}phenoxy)-3-(4-thiomorpholinyl)-2-propanol] |  |  |  |  |  |  |  |  | 170000 pfu/ml | 80000 pfu/ml | 31000 pfu/ml | 
